# Results published in US7642245B2, “Antibacterial compounds having a (pyrrole carboxamide)-(benzamide)-(imidazole carboxamide) motif” (Oscient Pharmaceuticals Corporation, priority 2002, dated 2010).
# How the values were obtained:
# [1] = tested on: B. cereus ATCC 11778; assay: MIC, NCCLS broth microdilution; type: cell-based, Bacillus cereus; settings: D = B. cereus ATCC 11778
# Text: (§1) In vitro biological activity data were collected for a variety of microorganisms, including Staphylococcus aureus (ATCC 27660, a methicillin resistant strain (MRSA); ATCC 13709, a methicillin sensitive strain (MSSA)), Enterococcus faecalis (ATCC 29212), Bacillus cereus (ATCC 11778), Streptococcus pneumoniae (ATCC 49619), Candida albicans (ATCC 38247), Escherichia coli (ATCC 25922), and Moraxella (now Branhamella) catarrhalis (ATCC 25238).
# (§2) The minimal inhibition concentration (MIC) of these compounds was determined using the National Committee for Clinical Laboratory Standards (NCCLS) broth microdilution assay in microtiter plates, as set forth in: (1) the guidelines of the National Committee for Clinical Laboratory Standards (NCCLS) Document M7-A4 (NCCLS, 1997); (2) the guidelines of the National Committee for Clinical Laboratory Standards (NCCLS) Document M11-A4 (NCCLS, 1997); and (3) the guidelines and reference method of the National Committee for Clinical Laboratory Standards (NCCLS) Document M27-T (NCCLS, 1995). For antifungal assays, the method recommended in Murray, P R., 1995 Manual of Clinical Microbiology (ASM Press, Washington, DC.), was employed.
# [2] = tested on: E. faecalis ATCC 29212; assay: MIC, NCCLS broth microdilution; type: cell-based, Enterococcus faecalis; settings: C = E. faecalis ATCC 29212
# Text: as §1, §2
# [3] = tested on: C. albicans ATCC 38247; assay: MIC, antifungal assay; type: cell-based, Candida albicans; settings: F = C. albicans ATCC 38247
# Text: as §1, §2
# [4] = tested on: S. aureus ATCC 13709; assay: MIC, NCCLS broth microdilution; type: cell-based, Staphylococcus aureus; settings: A = S. aureus ATCC 13709 (MSSA)
# Text: as §1, §2
# [5] = tested on: S. aureus ATCC 27660; assay: MIC, NCCLS broth microdilution; type: cell-based, Staphylococcus aureus; settings: B = S. aureus ATCC 27660 (MRSA)
# Text: as §1, §2
# [6] = tested on: E. coli ATCC 25922; assay: MIC, NCCLS broth microdilution; type: cell-based, Escherichia coli; settings: G = E. coli ATCC 25922
# Text: as §1, §2
# [7] = tested on: S. pneumoniae ATCC 49619; assay: MIC, NCCLS broth microdilution; type: cell-based, Streptococcus pneumoniae; settings: E = S. pneumoniae ATCC 49619
# Text: as §1, §2
# [8] = tested on: M. catarrhalis (ATCC 25238); assay: MIC, NCCLS broth microdilution; type: cell-based, Moraxella (now Branhamella) catarrhalis; settings: H = M. catarrhalis (ATCC 25238)
# Text: as §1, §2
SMILES,Minimum Inhibitory Concentration (MIC) [1],Minimum Inhibitory Concentration (MIC) [2],Minimum Inhibitory Concentration (MIC) [3],Minimum Inhibitory Concentration (MIC) [4],Minimum Inhibitory Concentration (MIC) [5],Minimum Inhibitory Concentration (MIC) [6],Minimum Inhibitory Concentration (MIC) [7],Minimum Inhibitory Concentration (MIC) [8]
Cn1cc(NC(=O)c2cc3ccccc3cn2)cc1C(=O)Nc1ccc(C(=O)Nc2cn(C)c(C(=O)NCCNc3ccccn3)n2)cc1 [Compound A-23],+++ (MIC ≦ 4 μg/mL),+++ (MIC ≦ 4 μg/mL),>32 µg/mL,+++ (MIC ≦ 4 μg/mL),+++ (MIC ≦ 4 μg/mL),>32 µg/mL,+++ (MIC ≦ 4 μg/mL),+++ (MIC ≦ 4 μg/mL)
Cn1cc(NC(=O)c2cc3ccccc3cn2)cc1C(=O)Nc1ccc(C(=O)Nc2cn(C)c(C(=O)NCCN3CCCCCC3)n2)cc1 [Compound A-24],+++ (MIC ≦ 4 μg/mL),+++ (MIC ≦ 4 μg/mL),++ (4 < MIC < 12 μg/mL),+++ (MIC ≦ 4 μg/mL),+++ (MIC ≦ 4 μg/mL),>32 µg/mL,+++ (MIC ≦ 4 μg/mL),+++ (MIC ≦ 4 μg/mL)
CCN(CC)CCNC(=O)c1nc(NC(=O)c2ccc(NC(=O)c3cc(NC(=O)c4cc5ccccc5cn4)cn3C)cc2)cn1C [Compound A-25],+++ (MIC ≦ 4 μg/mL),+++ (MIC ≦ 4 μg/mL),>32 µg/mL,+++ (MIC ≦ 4 μg/mL),+++ (MIC ≦ 4 μg/mL),>32 µg/mL,+++ (MIC ≦ 4 μg/mL),+++ (MIC ≦ 4 μg/mL)
Cn1cc(NC(=O)c2cc3ccccc3cn2)cc1C(=O)Nc1ccc(C(=O)Nc2cn(C)c(C(=O)NCCNCCN3CCOCC3)n2)cc1 [Compound A-26],+++ (MIC ≦ 4 μg/mL),+++ (MIC ≦ 4 μg/mL),>32 µg/mL,+++ (MIC ≦ 4 μg/mL),+++ (MIC ≦ 4 μg/mL),>32 µg/mL,+++ (MIC ≦ 4 μg/mL),>32 µg/mL
Cn1cc(NC(=O)c2cc3ccccc3cn2)cc1C(=O)Nc1ccc(C(=O)Nc2cn(C)c(C(=O)NCCN3CCN(CCO)CC3)n2)cc1 [Compound A-27],+++ (MIC ≦ 4 μg/mL),+++ (MIC ≦ 4 μg/mL),>32 µg/mL,+++ (MIC ≦ 4 μg/mL),+++ (MIC ≦ 4 μg/mL),>32 µg/mL,+++ (MIC ≦ 4 μg/mL),+++ (MIC ≦ 4 μg/mL)
COCCNCCNC(=O)c1nc(NC(=O)c2ccc(NC(=O)c3cc(NC(=O)c4cc5ccccc5cn4)cn3C)cc2)cn1C [Compound A-28],+++ (MIC ≦ 4 μg/mL),+++ (MIC ≦ 4 μg/mL),+ (12 ≦ MIC ≦ 32 μg/mL),+++ (MIC ≦ 4 μg/mL),+++ (MIC ≦ 4 μg/mL),++ (4 < MIC < 12 μg/mL),+++ (MIC ≦ 4 μg/mL),+++ (MIC ≦ 4 μg/mL)
COCCN(C)CCNC(=O)c1nc(NC(=O)c2ccc(NC(=O)c3cc(NC(=O)c4cc5ccccc5cn4)cn3C)cc2)cn1C [Compound A-29],+++ (MIC ≦ 4 μg/mL),+++ (MIC ≦ 4 μg/mL),+ (12 ≦ MIC ≦ 32 μg/mL),+++ (MIC ≦ 4 μg/mL),+++ (MIC ≦ 4 μg/mL),++ (4 < MIC < 12 μg/mL),+++ (MIC ≦ 4 μg/mL),+++ (MIC ≦ 4 μg/mL)
CCOCCCNCCNC(=O)c1nc(NC(=O)c2ccc(NC(=O)c3cc(NC(=O)c4cc5ccccc5cn4)cn3C)cc2)cn1C [Compound A-31],++ (4 < MIC < 12 μg/mL),++ (4 < MIC < 12 μg/mL),+ (12 ≦ MIC ≦ 32 μg/mL),+++ (MIC ≦ 4 μg/mL),+++ (MIC ≦ 4 μg/mL),>32 µg/mL,+++ (MIC ≦ 4 μg/mL),>32 µg/mL
CCN(CCO)CCNC(=O)c1nc(NC(=O)c2ccc(NC(=O)c3cc(NC(=O)c4cc5ccccc5cn4)cn3C)cc2)cn1C [Compound A-32],+++ (MIC ≦ 4 μg/mL),+++ (MIC ≦ 4 μg/mL),>32 µg/mL,+++ (MIC ≦ 4 μg/mL),+++ (MIC ≦ 4 μg/mL),>32 µg/mL,+++ (MIC ≦ 4 μg/mL),+++ (MIC ≦ 4 μg/mL)
Cn1cc(NC(=O)c2cc3ccccc3cn2)cc1C(=O)Nc1ccc(C(=O)Nc2cn(C)c(C(=O)NCCNCCCCCO)n2)cc1 [Compound A-33],+++ (MIC ≦ 4 μg/mL),+++ (MIC ≦ 4 μg/mL),>32 µg/mL,+++ (MIC ≦ 4 μg/mL),+++ (MIC ≦ 4 μg/mL),+++ (MIC ≦ 4 μg/mL),+++ (MIC ≦ 4 μg/mL),>32 µg/mL
Cn1cc(NC(=O)c2cc3ccccc3cn2)cc1C(=O)Nc1ccc(C(=O)Nc2cn(C)c(C(=O)NCCNCC3CC3)n2)cc1 [Compound A-34],+++ (MIC ≦ 4 μg/mL),+++ (MIC ≦ 4 μg/mL),>32 µg/mL,+++ (MIC ≦ 4 μg/mL),+++ (MIC ≦ 4 μg/mL),+++ (MIC ≦ 4 μg/mL),+++ (MIC ≦ 4 μg/mL),+++ (MIC ≦ 4 μg/mL)
Cn1cc(NC(=O)c2cc3ccccc3cn2)cc1C(=O)Nc1ccc(C(=O)Nc2cn(C)c(C(=O)NCCNC3CCCCC3)n2)cc1 [Compound A-35],+++ (MIC ≦ 4 μg/mL),+++ (MIC ≦ 4 μg/mL),>32 µg/mL,+++ (MIC ≦ 4 μg/mL),+++ (MIC ≦ 4 μg/mL),>32 µg/mL,+++ (MIC ≦ 4 μg/mL),++ (4 < MIC < 12 μg/mL)
